Reference: patent US9888679B2, “Protection of progenitor cells and regulation of their differentiation” (Proteobioactives Pty Ltd, priority 2007, dated 2018)
“And” between values parts separate entries of the source, which are not always exact repeats. Equal values may be shown once.

Test system: Murine Progenitor Cell (C3H10T1/2)
Test: Proteoglycan biosynthesis (35S-GAG) and DNA content in monolayer cultures
Format: cell-based
Conditions: for biosynthesis of proteoglycans: all concentrations of PPS
Protocol: FIG. 9. Concentration dependent effects of Pentosan Polysulfate (PPS) on Murine Progenitor Cell (progenitor cells C3H10T1/2) biosynthesis of Proteoglycans (PGs) and DNA content when grown in monolayer cultures. Data shown=Means±SD.
Murine Progenitor cells (cell lines C3H10T1/2 or ATDC5) purchased from RIKEN Cell Bank (Tsukuba, Japan) or human immunoselected Stro-1+ Progenitor cells (Mesoblast Ltd, Melbourne, Australia) were seeded into 50 mL plastic culture flasks containing 1:1 high glucose DMEM/Ham's F-12 medium (Invitrogen) supplemented with 10% FBS (Sigma) and incubated at 37° C., in 5% CO2. After confluence was reached, progenitor cells were released by trypsinization and harvested by centrifugation. Cells were inoculated to 96-well or 24-well plates at a density of 3×10^4 cells or 2×10^5 cells per well. After 48-hour incubation at 37° C., 5% CO2 confluent monolayers were normally established. The medium was then changed to defined medium, which contained different concentrations of PPS with and without rhNC4 and 5 μCi/ml of ^35S—H2SO4 (PerkinElmer, USA). The experiments were generally terminated after 48 hours incubation when proteoglycan biosynthesis was determined by measuring the incorporation of ^35SO4 into the glycosaminoglycans (^35S-GAGs) as described below.
(A) 96-well plates: Cultures were subjected to proteolytic digestion with papain to release glycosaminoglycans. The papain stock solution used contained 2.5 mg/ml papain (Sigma), 7.9 mg/ml cysteine-HCl (Sigma) in papain digest buffer (0.1M NaAc, 5 mM EDTA, pH6.0). 50 μl of papain stock solution was added to each well. The plate was sealed using plastic sheeting and incubated at 65° C. for 2 hours. […]
The ^35SO4-GAGs in the remained solution (200 ul) were precipitated with Cetyl Pyridinium Chloride (CPC) (Sigma). […] Following addition of 3 ml scintillation liquid and vortexing the radioactivity of the ^35S-GAG-CPC complexes were in the samples were measured by scintillation counting (PerkinElmer, USA) and recorded as DPM/sample. The data then was then normalised for DNA and expressed as ^35-S-GAGs/μg DNA.
(B) 24-well plates: After 48 hours incubation in the defined media, the media per well (containing soluble ^35S-labelled proteoglycans) was separated from the cells and transferred to a 2.0 ml microfuge tube. […] The 35S-GAG-CPC complexes collected through the fibre filter and the radioactivity of 35S-GAG was measured using the liquid scintillation analyser as describe above. The cells were extracted with the RNA reagent and aliquots used to determine gene expression and/or the DNA content was measured by the fluorometric assay and the results expressed as ^35-S-GAGs/μg DNA. […]

pentosan polysulfate [PPS]
PPS concentration best with regard to DNA content (FIG. 9): 5 μl/ml and 10 μl/ml | PPS concentration best with regards to PG synthesis (FIG. 9): 10 μl/ml | biosynthesis of proteoglycans (FIG. 9): increased | biosynthesis of proteoglycans (FIG. 9, listed as polysulfated polysaccharides): chondrogenic promoting effect
